{"source": "patent US11878012B2", "about": "“Compositions and methods for treating traumatic brain injury” (Board of Regents, the University of Texas System, priority 2020, dated 2024)", "key": {"[1]": {"test_system": "DGGCs", "assay": "Patch-clamp / current-clamp recordings of DGGCs in hippocampal slices (action potentials, AHP, IM amplitude)", "assay_type": "cell-based, mice", "method": "(§1) Hippocampal Slice Preparation. […] Hippocampal slices were maintained in oxygenated ACSF at 30° C. for 60 min and experiments were performed at 25° C."}, "[2]": {"test_system": "DGGCs", "assay": "Ca2+ imaging with calcium green-1 in DGGCs of hippocampal slices, whole-cell mode", "assay_type": "cell-based, mice", "details": "for peak calcium green-1 fluorescence increase: M1R stimulation", "method": "as §1\nCa2^+ Imaging. Concurrent with patch-clamp electrophysiology, neurons in slices were also imaged (Nikon FN-1, 40× water-immersion objective) via the fluorescent Ca^2+-reporter dye calcium green-1. As a hexapotassium salt, the dye (10 μm) was added to the intracellular patch pipette solution and neurons were patched under whole-cell clamp, as described above. Cells were loaded for 10 min before image acquisition. Fluorescence intensity was obtained using a SOLA Light Engine illumination source (Lumencor) with an output of 3.5 W through a 3-mm-diameter liquid light guide through a Nikon ET-GFP filter. Nikon Elements software was used for image acquisition through a QIClick CCD camera (QImaging). Images were acquired with an exposure time of 200 ms every 2 min using a single-channel, 12-bit rate and no binning. The shutter was closed between each acquisition. For each cell, the corrected total cell fluorescence was measured as the integrated density intensity—(cell area*mean background emission). Ca^2+ signals were measured as the change in fluorescence relative to the baseline fluorescence (ΔF/F0). Averages of four images were thresholded at 10%, masked using a highly averaged image of the cell, and encoded with a pseudocolor look-up table. Group cell fluorescence data were averaged in comparison with normalized intensity at each time point."}, "[3]": {"test_system": "DGGCs", "assay": "GCaMP6f brain slice Ca2+ imaging of DGGCs after sham or CCI-TBI", "assay_type": "cell-based, mice", "details": "for Ca2+ influx events per neuron: 0.3 mM ACh 5 min; for duration of Ca2+ influx / peak amplitude of Ca2+ influx: ACh", "description": "Neuromodulation of TRPC generates robust Ca2+ influx and facilitates neuronal hyperexcitability. […] To assess the post-injury effect of TRPC channel upregulation on neurons, we used Ca2+ imaging in brain slice to measure excitability as a product of intracellular Ca2+ gating by TRPC1/4/5 channels (FIG. 4). […] Transgenic mice with the GCaMP6f transgene were used to detect changes in cellular Ca2+-activated fluorescence. We hypothesized that DGGC activity increases due to muscarinic stimulation with ACh or direct activation of TRPC4-containing channels with EA. Sensitivity was tested by bath perfusion of ACh or EA to the slice for 5 minutes during Ca2+ imaging to quantify peak amplitude of GCaMP6f fluorescence per cell, duration of Ca2+ influx, and the field-frequency of events (FIG. 4).\nBrain slice Ca2+ imaging. Transverse slices (300 μm) of hippocampus were cut with a vibratome (Thermo Scientific Microm HM650V) from Cre-CamK2+/GCamp6f+/− mice. […] Hippocampal slices were maintained in oxygenated ACSF at 30° C. for 60 min, and experiments performed at 28° C. […] Neurons were visually identified with a Nikon FN-1 microscope equipped with a 40× water-immersion objective and infrared differential interference contrast. GCaMP6f fluorescence was obtained using a SOLA Light Engine Illumination source (Lumecor) with an output of 3.5W through a 3 mm diameter liquid light guide through a Nikon ET-GFP filter. Nikon Elements software was used for image acquisition through a QIClick CCD camera (Qlmaging) with a Uniblitz Model VMM-D 1 shutter driver. Baseline time series of the DG granule layer were acquired in the presence of bath solution perfusion for 2 min. […] Images were acquired in time series with an exposure time of 200 ms at 2-10 fps at 12-bit rate and no binning. Time-series image stacks were processed with ImageJ. Images were background subtracted using the mean of the 5% lowest pixel values. Ca2+ signal events were quantified for each cell as change in fluorescence divided by the baseline fluorescence (ΔF/FO) after background subtraction. ROI signals were detrended before quantification to account for drift due to gradual photobleaching of the background."}, "[4]": {"test_system": "TRPC4/5 channels", "details": "description from literature; cited from earlier work"}, "[5]": {"test_system": "other TRPC channels", "details": "description; cited from earlier work"}, "[6]": {"test_system": "seizure susceptibility", "assay": "Single subconvulsant PTZ challenge 7 days after CCI-TBI", "assay_type": "in vivo, mice", "details": "PTZ 50 mg/kg single dose 7 days after TBI, n=14", "description": "TBI facilitates TRPC-dependent seizure susceptibility.\nControlled cortical impact traumatic brain injury. […] Apnea episodes lasted between 10-60 sec after impact.\nSeizure susceptibility assays. Pentylenetetrazol kindling model."}, "[7]": {"test_system": "seizure susceptibility", "assay": "PTZ kindling after sham or CCI-TBI", "method": "The fact that only a portion of TBI cases become susceptible to epileptic seizures is a yet unanswered phenomenon in both preclinical and clinical studies. Therefore, we investigated seizure susceptibility within the CCI-TBI model to gain a greater understanding as to the etiology of hyperexcitability spread occurring post-injury. […] In our seizure susceptibility paradigm, 1 or 7 days after experimental procedure, mice were challenged with a subconvulsant dose of PTZ (35 mg/kg s.c.) once-daily to elicit kindling epileptogenesis (FIG. 6A). The progression of motor seizure behavior was observed and timed by direct observation linked to EEG activity (FIG. 6B).\nWe wished to understand if the TRPC channel upregulation after TBI could be targeted to impede epileptogenic activity. […] Seizure susceptibility was standardized according to the latency to forelimb clonus lasting greater than 5 sec.\nControlled cortical impact traumatic brain injury. The controlled cortical impact (CCI) traumatic brain injury (TBI) model was applied, with a closed skull impact approach. The CCI model causes TBI, but the skull remains intact with minimal hematoma. This type of brain injury model most closely simulates the TBI experienced during blunt-head injuries from vehicular accidents or falls. Mice were anesthetized with isoflurane (3% induction, 1% maintenance) in 100% O2. Body temperature of 37° C. was maintained using a temperature-controlled heated surgical table. The skull was fixed with ear-bars into a stereotaxic frame. A small midline incision was made on the scalp using aseptic surgical techniques. Impact was delivered by cylindrical probe of 5 mm diameter with an Impact One neurotrauma impactor (Leica Biosystems). A calibrated impact was delivered at 4.5 m/sec to a depth of 1 mm and 0.5 sec dwell time to the right parietal cortex (−1.8 mm ML, +2.0 mm AP, −1.0 mm DV). […] The scalp was then sutured closed and mice were placed in a warming recirculation unit and monitored until fully awake and moving freely. […] For consistency, the left hemisphere of both sham and TBI mice is designated as “contralateral” brain, and the right hemisphere is referred to as “ipsilateral”, despite no impact injury occurring in sham mice.\nIn vivo electroencephalograms. To determine seizure frequency and record brain susceptibility to seizures, mice were implanted with electroencephalogram (EEG) electrodes 24 hr after sham or TBI. A three-channel tethered EEG system was used. The electrode pedestal (P1 Technologies) was secured to the skull with three anchored dental screws and connected to a preamplifier with gain of 25. The three leads were inserted over the left frontal cortex, left parietal cortex, and depth electrode lead into the hippocampus. The Stellate Harmonie acquisition hardware and software were used to collect coincident video and EEG activity. EEGs were inspected for presence of epileptiform spikes and seizures.\nSeizure susceptibility assays. Pentylenetetrazol kindling model. Seizure susceptibility was tested with the GABAA receptor antagonist pentylenetetrazol (PTZ) for progression of motor seizure activity. Mice were injected with PTZ (35 mg/kg, s.c.) once per day and scored for motor behavioral seizures."}, "[8]": {"test_system": "TRPC1/4/5 channels", "details": "Rubaiy et al., 2017; cited from earlier work"}, "[9]": {"details": "TRPC4/5 channels blocked, control or plus 77-LH-28-1 3 μM"}, "[10]": {"details": "PTZ daily from 1 day post-TBI, TBI"}, "[11]": {"details": "PTZ daily from 1 day post-procedure, sham"}, "[12]": {"details": "PTZ daily from 7 days after TBI, TBI"}, "[13]": {"details": "PTZ daily from 7 days after procedure, sham"}, "[14]": {"details": "IP3 receptor blockade, xestospongin C 10 μm"}}}
{"smiles": "CCCCC1CCN(CCCN2C(=O)CCc3ccccc32)CC1", "note": "[77-LH-28-1]", "values": [{"measurement": "enhancement of IM amplitude", "setting": "[1]; 77-LH-28-1 3 μm with TRPC4/5 channels blocked", "value": "1.83 ±0.14", "unit": "fold"}, {"measurement": "action potential firing rate", "setting": "[1]; 77-LH-28-1 3 μm, no TRPC4/5 blocker", "value": "significantly increased"}, {"measurement": "enhancement of IM amplitude", "setting": "[1]; M1R stimulation in the absence of TRPC4/5 channel blockers", "value": "1.92±0.10", "unit": "fold"}, {"measurement": "action potential threshold", "setting": "[1]; M084 10 μm + 77-LH-28-1 3 μm, n=8 cells", "value": "−46.1±1.5", "unit": "mV"}, {"measurement": "AHP amplitude", "setting": "[1]; [9]", "value": "13.6 ± 0.9", "unit": "mV"}, {"measurement": "AHP area", "setting": "[1]; [9]", "value": "264.8 ± 21.5", "unit": "ms* mV"}, {"measurement": "AHP decay", "setting": "[1]; [9]", "value": "17.1 ± 0.8", "unit": "ms"}, {"measurement": "peak calcium green-1 fluorescence increase", "setting": "[2]; 77-LH-28-1 3 μm", "value": "2.91±0.41", "unit": "fold"}, {"measurement": "peak calcium green-1 fluorescence increase", "setting": "[2]; 77-LH-28-1 10 μm", "value": "4.27±0.95", "unit": "fold"}]}
{"smiles": "CC(=O)OCC[N+](C)(C)C", "note": "[ACh, acetylcholine]", "values": [{"measurement": "Ca2+ influx events per neuron", "setting": "[3]; contralateral TBI", "value": "2.6±0.2", "unit": "events/neuron"}, {"measurement": "Ca2+ influx events per neuron", "setting": "[3]; ipsilateral TBI", "value": "4.3±0.2", "unit": "events/neuron"}, {"measurement": "Ca2+ influx events per neuron", "setting": "[3]; sham control tissue", "value": "1.8±0.3", "unit": "events/neuron"}, {"measurement": "duration of Ca2+ influx", "setting": "[3]; contralateral DGGCs", "value": "6.12 ± 0.19", "unit": "s"}, {"measurement": "peak amplitude of Ca2+ influx", "setting": "[3]; contralateral DGGCs", "value": "1.70±0.12 ΔF/F"}, {"measurement": "duration of Ca2+ influx", "setting": "[3]; ipsilateral DGGCs", "value": "8.51 ± 0.20", "unit": "s"}, {"measurement": "peak amplitude of Ca2+ influx", "setting": "[3]; ipsilateral TBI DGGCs", "value": "4.31±0.58 ΔF/F"}]}
{"smiles": "Cc1cc(N2CCCCC2)nc2ccccc12", "note": "[ML204, 4-Methyl-2-(1-piperidinyl)quinolone]", "values": [{"measurement": "effect on TRPC4/5 channels", "setting": "[4]", "value": "selectively inhibit"}, {"measurement": "blockage of other TRPC channels", "setting": "[5]", "value": "no appreciable blockage"}, {"measurement": "maximum calcium-green 1 emission on muscarinic stimulation", "setting": "[2]; M084 and ML204 together, 10 μm", "value": "1.61±0.21", "unit": "fold"}]}
{"smiles": "C1CCc2nnnn2CC1", "note": "[PTZ, pentylenetetrazol]", "values": [{"measurement": "mice acquiring myoclonic jerks", "setting": "[6]", "value": 100, "unit": "%"}, {"measurement": "mice with forelimb clonus seizures", "setting": "[6]", "value": 86, "unit": "%"}, {"measurement": "latency to myoclonic jerks", "setting": "[7]; PTZ 35 mg/kg s.c. daily from 1 day post-TBI, TBI", "value": "4.4 ± 0.6", "unit": "days"}, {"measurement": "latency to myoclonic jerks", "setting": "[7]; PTZ 35 mg/kg s.c. daily from 1 day post-procedure, sham", "value": "9.5 ± 0.6", "unit": "days"}, {"measurement": "latency to forelimb clonus", "setting": "[7]; [10]", "value": "5.6 ± 0.7", "unit": "days"}, {"measurement": "latency to tonic-clonic seizure", "setting": "[7]; [10]", "value": "7.9 ± 0.7", "unit": "days"}, {"measurement": "latency to forelimb clonus", "setting": "[7]; [11]", "value": "11.3 ± 0.7", "unit": "days"}, {"measurement": "latency to tonic-clonic seizure", "setting": "[7]; [11]", "value": "12.5 ± 0.8", "unit": "days"}, {"measurement": "latency to forelimb clonus", "setting": "[7]; [12]", "value": "4.3 ± 0.8", "unit": "days"}, {"measurement": "latency to myoclonic jerks", "setting": "[7]; [12]", "value": "3.6 ± 0.7", "unit": "days"}, {"measurement": "latency to tonic-clonic seizure", "setting": "[7]; [12]", "value": "5.6 ± 1.2", "unit": "days"}, {"measurement": "latency to forelimb clonus", "setting": "[7]; [13]", "value": "12.0 ± 0.6", "unit": "days"}, {"measurement": "latency to myoclonic jerks", "setting": "[7]; [13]", "value": "9.8 ± 0.4", "unit": "days"}, {"measurement": "latency to tonic-clonic seizure", "setting": "[7]; [13]", "value": "13.1 ± 0.6", "unit": "days"}, {"measurement": "mice with lethal seizures on second tonic-clonic occurrence", "setting": "[7]; PTZ kindling from 1 day post-TBI, TBI group", "value": "five out of eight"}]}
{"smiles": "Cn1c(=O)n(CCCO)c(=O)c2c1nc(Oc1cccc(OC(F)(F)F)c1)n2Cc1ccc(Cl)cc1", "note": "[Pico145]", "values": [{"measurement": "potency on TRPC1/4/5 channels", "setting": "[8]", "value": "picomolar potency"}]}
{"smiles": "CCCCCCCCCCCCCCCCCCOCC(COP(=O)([O-])OCC[N+](C)(C)C)OC", "note": "(stereo not drawn) [edelfosine]", "values": [{"measurement": "maximum dye emission over that before agonist", "setting": "[2]; slices preincubated with edelfosine 10 μm, then 77-LH-28-1", "value": "1.15±0.08", "unit": "fold"}]}
{"smiles": "C1CCC[C@H]2CCCN3CC[C@@H](CCCCCC[C@@H]4CCCN5CC[C@@H](CC1)O[C@@H]45)O[C@@H]23", "note": "[xestospongin C]", "values": [{"measurement": "action potential firing frequency on mAChR stimulation", "setting": "[1]; [14]", "value": "increased action potential firing frequency"}, {"measurement": "M1R-mediated enhancement of IM", "setting": "[1]; xestospongin C 10 μm in the pipette", "value": "1.67±0.14", "unit": "fold"}, {"measurement": "rises in [Ca2+]i on mAChR stimulation", "setting": "[2]; [14]", "value": "substantial rises"}]}
